Reference: article PMC7402526, “An in vitro quantitative systems pharmacology approach for deconvolving mechanisms of drug-induced, multilineage cytopenias” (PLoS Computational Biology, 2020)

Tests used:
[1] = system: multi-potent progenitors (MPPs); test: MLTA, MPPs: concentration-response and QSP model fit; type: cell-based, human; details: Homo sapiens, 144 h
Experimental: (§1) A custom optimized cytokine cocktail was developed using commercially available cytokines (Peprotech, New Jersey) to facilitate simultaneous multi-lineage differentiation and self-renewal of freeze-thawed primary human bone marrow-derived CD34+ cells in SFEM II media (cells and media from StemCell Technologies, Vancouver). Cultures were carried out in ultra-low attachment 96-well plates (Corning, New York) with test article added on day 0 and cultured at 37°C, 85% relative humidity, and 5% CO2 for six days before interrogating drug impact via 17-parameter flow cytometry.
(§2) The flow cytometry panel used to define hematopoietic subsets was composed of CD34-PECy7, CD90-PECY5, CD38-AF488, CD371-PE, CD45Ra-BV421, CD14-BV605, CD42b-AF647, CD10-PEDazzle594, CD235a-PerCPCy5.5 (BioLegend, California), CD15-BUV395, CD41a-APCH7, CD71-BV786 (BD Biosciences, California), and DAPI for dead cell exclusion (ThermoFisher, California). In short, Day 6 cells were harvested, FcR-blocked (FcR binding inhibitor, ThermoFisher), surface-stained, then analyzed in a buffer containing TruCount Control Beads using a BD LSR Fortessa SORP fitted with a high-throughput sampler (BD Biosciences, California). Data was analyzed in Diva 6.0.2 and exported to CSV where after all cell data was transformed to cell per mL then normalized on a per-donor basis to untreated control wells to determine drug impact.
(§3) Donor material was collected and cultured as described above. The number of replicate donor samples per drug ranged from 2–7 and varied per drug (S1 Table). Drug treatment was added at time 0 and cells were maintained in culture for 6 days. Concentrations tested for each drug compound are contained in S1 Table. Concentrations were selected to span a range that is clinically useful. Following treatment, cell populations were measured using flow cytometry. We extracted cell counts from flow cytometry data, normalized to bead counts, and corrected for well volume.
(§4) Each well was normalized to the average of six vehicle control wells. For drugs that were tested across multiple runs of the assay, vehicle-normalized donor data were pooled, and we used the average of these pooled data for further modeling. Normalized data used as model inputs are included in S1 Table.
(§5) We implemented drug effects using an Emax model for the drug’s effect on each cell type. The 13 maximum effect parameters (EmaxT,C) are unitless and can vary between 0 and 2 and where a subscript, C, represents one of the previously described 13 cell types. We adapted a traditional Emax model using the equations below. We interpreted EmaxT values less than or equal to one as anti-proliferative, and EmaxT values greater than one as indicating a cell-killing mechanism in addition to anti-proliferation. The relationships for these effects are included in the model using the following equations. Eq 2 describes the drug anti-proliferative effect in the net proliferation rate for a given cell type. Eq 3 describes the cell-killing EmaxCK effect.
(§6) Towards the estimation of mechanistic parameters, we considered different formulations: (a) weighting the objective value to prioritize fitting dead cells and (b) using regularization methodology to encourage a parsimonious solution. We assessed the contributions of these formulations using mean-squared error and goodness of fit plots for drugs with known mechanisms. […] Further, we used L1 regularization to penalize parameters […] to help identify a parsimonious set of parameters to explain drug effects.

[2] = system: granulocyte-macrophage progenitor (GMPs); test: MLTA, GMPs: concentration-response and QSP model fit; type: cell-based, human; details: Homo sapiens, 144 h
Experimental: as §1, §2, §3, §4, §5, §6

[3] = system: granulocyte progenitor (Gran-lin prog); test: MLTA, GranP: concentration-response and QSP model fit; type: cell-based, human; details: Homo sapiens, 144 h
Experimental: as §1, §2, §3, §4, §5, §6

[4] = system: early erythroid cells (Eryth I); test: MLTA, ErythI: concentration-response and QSP model fit; type: cell-based, human; details: Homo sapiens, 144 h
Experimental: as §1, §2, §3, §4, §5, §6

MK cells (MK-lin) = test: MLTA, MK: concentration-response and QSP model fit; type: cell-based, human; details: Homo sapiens, 144 h
Experimental: as §1, §2, §3, §4, §5, §6

[5] = system: lymphocyte progenitors (LymP); test: MLTA, LymP: concentration-response and QSP model fit; type: cell-based, human; details: Homo sapiens, Lymphocyte, 144 h
Experimental: as §1, §2, §3, §4, §5, §6

B cells (B-lin) = test: MLTA, B-lin: concentration-response and QSP model fit; type: cell-based, human; details: Homo sapiens, B-cell, 144 h
Experimental: as §1, §2, §3, §4, §5, §6

[6] = system: total viable cells (totalViableCells); test: MLTA, total live cells concentration-response; type: cell-based; details: Homo sapiens, 144 h, 6 days, normalized to vehicle control, read-out: total_live normalized cell count
Experimental: as §1, §2, §3, §4

[7] = QSP model fit of 6-day MLTA data

EC50 [2, 7]: 0.0373 µM | EC50 ([4]; QSP model fit of 6-day MLTA data, read-out: EC50ErythI): 0.0292 µM | EC50 (MK cells (MK-lin); [7]): 0.486 µM | EC50 (B cells (B-lin); [7]): 0.0692 µM
SMILES: CCN1CCN(Cc2ccc(Nc3ncc(F)c(-c4cc(F)c5nc(C)n(C(C)C)c5c4)n3)nc2)CC1 [abemaciclib]
activity at 0.0002 µM ([1]; dose 0.2 nM, 6 days, normalized to vehicle control, read-out: MPPs normalized cell count): 102% | activity at 0.001 µM ([1]; dose 1 nM, 6 days, normalized to vehicle control, read-out: MPPs normalized cell count): 98.3% | activity at 0.005 µM ([1]; dose 5 nM, 6 days, normalized to vehicle control, read-out: MPPs normalized cell count): 80.3% | activity at 0.025 µM ([1]; dose 25 nM, 6 days, normalized to vehicle control, read-out: MPPs normalized cell count): 44.3% | activity at 0.1 µM ([1]; dose 100 nM, 6 days, normalized to vehicle control, read-out: MPPs normalized cell count): 24.8% | activity at 0.5 µM ([1]; dose 500 nM, 6 days, normalized to vehicle control, read-out: MPPs normalized cell count): 27.6% | activity at 2.5 µM ([1]; dose 2500 nM, 6 days, normalized to vehicle control, read-out: MPPs normalized cell count): 3.6% | Emax ([1]; parameter from QSP model fitting, read-out: Emax_drug_MPP): 0.16% | activity at 0.0002 µM ([2]; dose 0.2 nM, 6 days, normalized to vehicle control, read-out: GMPs normalized cell count): 89.7% | activity at 0.001 µM ([2]; dose 1 nM, 6 days, normalized to vehicle control, read-out: GMPs normalized cell count): 108% | activity at 0.005 µM ([2]; dose 5 nM, 6 days, normalized to vehicle control, read-out: GMPs normalized cell count): 93.6% | activity at 0.025 µM ([2]; dose 25 nM, 6 days, normalized to vehicle control, read-out: GMPs normalized cell count): 50.4% | activity at 0.1 µM ([2]; dose 100 nM, 6 days, normalized to vehicle control, read-out: GMPs normalized cell count): 29.2% | activity at 0.5 µM ([2]; dose 500 nM, 6 days, normalized to vehicle control, read-out: GMPs normalized cell count): 5.84% | activity at 2.5 µM ([2]; dose 2500 nM, 6 days, normalized to vehicle control, read-out: GMPs normalized cell count): 0.643% | activity at 0.0002 µM ([3]; dose 0.2 nM, 6 days, normalized to vehicle control, read-out: GranPs normalized cell count): 95.1% | activity at 0.001 µM ([3]; dose 1 nM, 6 days, normalized to vehicle control, read-out: GranPs normalized cell count): 100% | activity at 0.005 µM ([3]; dose 5 nM, 6 days, normalized to vehicle control, read-out: GranPs normalized cell count): 86.6% | activity at 0.025 µM ([3]; dose 25 nM, 6 days, normalized to vehicle control, read-out: GranPs normalized cell count): 52% | activity at 0.1 µM ([3]; dose 100 nM, 6 days, normalized to vehicle control, read-out: GranPs normalized cell count): 24.8% | activity at 0.5 µM ([3]; dose 500 nM, 6 days, normalized to vehicle control, read-out: GranPs normalized cell count): 2.43% | activity at 2.5 µM ([3]; dose 2500 nM, 6 days, normalized to vehicle control, read-out: GranPs normalized cell count): 0.0287% | Emax ([3]; parameter from QSP model fitting, read-out: Emax_drug_GranP): 0.23% | activity at 0.0002 µM ([4]; dose 0.2 nM, 6 days, normalized to vehicle control, read-out: ErythI normalized cell count): 107% | activity at 0.001 µM ([4]; dose 1 nM, 6 days, normalized to vehicle control, read-out: ErythI normalized cell count): 116% | activity at 0.005 µM ([4]; dose 5 nM, 6 days, normalized to vehicle control, read-out: ErythI normalized cell count): 97.8% | activity at 0.025 µM ([4]; dose 25 nM, 6 days, normalized to vehicle control, read-out: ErythI normalized cell count): 47.1% | activity at 0.1 µM ([4]; dose 100 nM, 6 days, normalized to vehicle control, read-out: ErythI normalized cell count): 20.1% | activity at 0.5 µM ([4]; dose 500 nM, 6 days, normalized to vehicle control, read-out: ErythI normalized cell count): 4.76% | activity at 2.5 µM ([4]; dose 2500 nM, 6 days, normalized to vehicle control, read-out: ErythI normalized cell count): 0.613% | Emax ([4]; parameter from QSP model fitting, read-out: Emax_drug_ErythroidI): 102% | activity at 0.0002 µM (MK cells (MK-lin); dose 0.2 nM, 6 days, normalized to vehicle control, read-out: MK normalized cell count): 108% | activity at 0.001 µM (MK cells (MK-lin); dose 1 nM, 6 days, normalized to vehicle control, read-out: MK normalized cell count): 99.5% | activity at 0.005 µM (MK cells (MK-lin); dose 5 nM, 6 days, normalized to vehicle control, read-out: MK normalized cell count): 101% | activity at 0.025 µM (MK cells (MK-lin); dose 25 nM, 6 days, normalized to vehicle control, read-out: MK normalized cell count): 84.2% | activity at 0.1 µM (MK cells (MK-lin); dose 100 nM, 6 days, normalized to vehicle control, read-out: MK normalized cell count): 44.1% | activity at 0.5 µM (MK cells (MK-lin); dose 500 nM, 6 days, normalized to vehicle control, read-out: MK normalized cell count): 8.35% | activity at 2.5 µM (MK cells (MK-lin); dose 2500 nM, 6 days, normalized to vehicle control, read-out: MK normalized cell count): 0.557% | Emax (MK cells (MK-lin); parameter from QSP model fitting, read-out: Emax_drug_MK): 6.8% | activity at 0.0002 µM ([5]; dose 0.2 nM, 6 days, normalized to vehicle control, read-out: LymP normalized cell count): 93.5% | activity at 0.001 µM ([5]; dose 1 nM, 6 days, normalized to vehicle control, read-out: LymP normalized cell count): 99.4% | activity at 0.005 µM ([5]; dose 5 nM, 6 days, normalized to vehicle control, read-out: LymP normalized cell count): 92.9% | activity at 0.025 µM ([5]; dose 25 nM, 6 days, normalized to vehicle control, read-out: LymP normalized cell count): 38.9% | activity at 0.1 µM ([5]; dose 100 nM, 6 days, normalized to vehicle control, read-out: LymP normalized cell count): 22.1% | activity at 0.5 µM ([5]; dose 500 nM, 6 days, normalized to vehicle control, read-out: LymP normalized cell count): 22.3% | activity at 2.5 µM ([5]; dose 2500 nM, 6 days, normalized to vehicle control, read-out: LymP normalized cell count): 7.46% | Emax ([5]; parameter from QSP model fitting, read-out: Emax_drug_LymP): 0.16% | activity at 0.0002 µM (B cells (B-lin); dose 0.2 nM, 6 days, normalized to vehicle control, read-out: B-lin normalized cell count): 83.9% | activity at 0.001 µM (B cells (B-lin); dose 1 nM, 6 days, normalized to vehicle control, read-out: B-lin normalized cell count): 104% | activity at 0.005 µM (B cells (B-lin); dose 5 nM, 6 days, normalized to vehicle control, read-out: B-lin normalized cell count): 83.9% | activity at 0.025 µM (B cells (B-lin); dose 25 nM, 6 days, normalized to vehicle control, read-out: B-lin normalized cell count): 50.8% | activity at 0.1 µM (B cells (B-lin); dose 100 nM, 6 days, normalized to vehicle control, read-out: B-lin normalized cell count): 23.5% | activity at 0.5 µM (B cells (B-lin); dose 500 nM, 6 days, normalized to vehicle control, read-out: B-lin normalized cell count): 4.07% | activity at 2.5 µM (B cells (B-lin); dose 2500 nM, 6 days, normalized to vehicle control, read-out: B-lin normalized cell count): 0.0736% | Emax (B cells (B-lin); parameter from QSP model fitting, read-out: Emax_drug_B): 64.9% | viability at 0.0002 µM ([6]; dose 0.2 nM): 99.1% | viability at 0.001 µM ([6]; dose 1 nM): 108% | viability at 0.005 µM ([6]; dose 5 nM): 96% | viability at 0.025 µM ([6]; dose 25 nM): 47.7% | viability at 0.1 µM ([6]; dose 100 nM): 17.4% | viability at 0.5 µM ([6]; dose 500 nM): 3.05% | viability at 2.5 µM ([6]; dose 2500 nM): 0.301%
